According to publication PMC11247487, “Discovery of Dual MER/AXL Kinase Inhibitors as Bifunctional Small Molecules for Inhibiting Tumor Growth and Enhancing Tumor Immune Microenvironment” (Journal of Medicinal Chemistry, 2024):

Key:
Ba/F3-MER cells = assay: Cell viability assay (MTS); format: cell-based; conditions: 72 h
MER = target: T1, MER (Homo sapiens, UniProt Q12866); assay: MER enzyme inhibition assay (in-house Kinase-Glo); format: biochemical
T1 construct: A purified kinase (MER or AXL) was incubated with a compound or DMSO
T1 sequence (Q12866 21-999): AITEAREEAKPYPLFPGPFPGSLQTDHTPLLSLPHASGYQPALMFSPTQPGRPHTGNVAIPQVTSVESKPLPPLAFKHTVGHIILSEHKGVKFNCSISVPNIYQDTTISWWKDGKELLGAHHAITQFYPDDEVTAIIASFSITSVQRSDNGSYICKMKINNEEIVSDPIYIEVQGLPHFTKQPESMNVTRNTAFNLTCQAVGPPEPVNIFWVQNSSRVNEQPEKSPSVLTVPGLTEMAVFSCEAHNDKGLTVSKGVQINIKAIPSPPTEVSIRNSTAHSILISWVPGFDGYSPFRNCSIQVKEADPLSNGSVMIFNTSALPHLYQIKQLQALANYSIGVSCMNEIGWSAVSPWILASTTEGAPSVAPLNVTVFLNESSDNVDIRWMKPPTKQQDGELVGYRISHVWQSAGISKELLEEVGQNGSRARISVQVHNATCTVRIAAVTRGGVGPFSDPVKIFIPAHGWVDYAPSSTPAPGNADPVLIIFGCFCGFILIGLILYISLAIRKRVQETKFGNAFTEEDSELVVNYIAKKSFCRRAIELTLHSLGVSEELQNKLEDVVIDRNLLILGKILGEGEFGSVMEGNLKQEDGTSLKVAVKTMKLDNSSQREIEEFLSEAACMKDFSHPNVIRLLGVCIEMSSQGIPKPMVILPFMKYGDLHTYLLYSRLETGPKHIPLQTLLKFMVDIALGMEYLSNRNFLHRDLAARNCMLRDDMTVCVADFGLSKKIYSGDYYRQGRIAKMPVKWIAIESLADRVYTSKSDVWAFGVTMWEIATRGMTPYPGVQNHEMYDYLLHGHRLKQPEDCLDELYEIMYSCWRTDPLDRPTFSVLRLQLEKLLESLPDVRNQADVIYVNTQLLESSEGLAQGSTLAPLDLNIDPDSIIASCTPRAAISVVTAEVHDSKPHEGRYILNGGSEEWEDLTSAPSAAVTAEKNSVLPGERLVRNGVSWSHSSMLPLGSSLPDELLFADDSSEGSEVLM

AXL = target: T2, AXL (Homo sapiens, UniProt P30530); assay: AXL enzyme inhibition assay (ADP-Glo); format: biochemical
T2 construct: A purified kinase (MER or AXL) was incubated with a compound or DMSO
T2 sequence (P30530 26-894): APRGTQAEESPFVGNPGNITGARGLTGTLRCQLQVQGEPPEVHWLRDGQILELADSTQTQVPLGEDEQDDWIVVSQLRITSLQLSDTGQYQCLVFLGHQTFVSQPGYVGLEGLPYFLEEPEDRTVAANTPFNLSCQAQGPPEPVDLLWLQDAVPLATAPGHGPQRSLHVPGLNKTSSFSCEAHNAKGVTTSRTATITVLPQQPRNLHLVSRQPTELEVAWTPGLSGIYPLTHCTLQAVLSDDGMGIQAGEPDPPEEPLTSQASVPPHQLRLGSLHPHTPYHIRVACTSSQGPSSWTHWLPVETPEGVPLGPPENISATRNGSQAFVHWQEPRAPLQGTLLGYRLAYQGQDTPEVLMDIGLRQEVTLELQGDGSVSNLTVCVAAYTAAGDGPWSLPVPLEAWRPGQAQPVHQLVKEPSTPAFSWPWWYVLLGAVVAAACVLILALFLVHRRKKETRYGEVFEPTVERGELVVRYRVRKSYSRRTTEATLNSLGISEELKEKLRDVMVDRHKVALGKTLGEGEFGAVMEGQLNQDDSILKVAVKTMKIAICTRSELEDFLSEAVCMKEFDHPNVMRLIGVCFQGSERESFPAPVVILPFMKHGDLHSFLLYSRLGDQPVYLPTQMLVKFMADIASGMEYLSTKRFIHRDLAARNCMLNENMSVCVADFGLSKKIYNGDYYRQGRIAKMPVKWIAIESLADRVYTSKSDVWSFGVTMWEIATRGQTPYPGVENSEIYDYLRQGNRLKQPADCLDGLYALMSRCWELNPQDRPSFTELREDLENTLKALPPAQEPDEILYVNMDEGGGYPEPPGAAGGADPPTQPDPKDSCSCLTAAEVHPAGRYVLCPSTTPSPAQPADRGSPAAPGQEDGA

EGFR^DM (T790M/L858R) = EGFR^DM (T790M/L858R) (Homo sapiens, UniProt P00533, L858R/T790M); assay: EGFR^DM in-house Kinase-Glo assay; format: biochemical; conditions: cell marked b = IC50 value
EGFR^WT = EGFR^WT (Homo sapiens, UniProt P00533); assay: EGFR^WT in-house Kinase-Glo assay; format: biochemical; conditions: read-out: EGFR^WT inh. @ 1 μM
Sequence of EGFR^WT (P00533 25-1210): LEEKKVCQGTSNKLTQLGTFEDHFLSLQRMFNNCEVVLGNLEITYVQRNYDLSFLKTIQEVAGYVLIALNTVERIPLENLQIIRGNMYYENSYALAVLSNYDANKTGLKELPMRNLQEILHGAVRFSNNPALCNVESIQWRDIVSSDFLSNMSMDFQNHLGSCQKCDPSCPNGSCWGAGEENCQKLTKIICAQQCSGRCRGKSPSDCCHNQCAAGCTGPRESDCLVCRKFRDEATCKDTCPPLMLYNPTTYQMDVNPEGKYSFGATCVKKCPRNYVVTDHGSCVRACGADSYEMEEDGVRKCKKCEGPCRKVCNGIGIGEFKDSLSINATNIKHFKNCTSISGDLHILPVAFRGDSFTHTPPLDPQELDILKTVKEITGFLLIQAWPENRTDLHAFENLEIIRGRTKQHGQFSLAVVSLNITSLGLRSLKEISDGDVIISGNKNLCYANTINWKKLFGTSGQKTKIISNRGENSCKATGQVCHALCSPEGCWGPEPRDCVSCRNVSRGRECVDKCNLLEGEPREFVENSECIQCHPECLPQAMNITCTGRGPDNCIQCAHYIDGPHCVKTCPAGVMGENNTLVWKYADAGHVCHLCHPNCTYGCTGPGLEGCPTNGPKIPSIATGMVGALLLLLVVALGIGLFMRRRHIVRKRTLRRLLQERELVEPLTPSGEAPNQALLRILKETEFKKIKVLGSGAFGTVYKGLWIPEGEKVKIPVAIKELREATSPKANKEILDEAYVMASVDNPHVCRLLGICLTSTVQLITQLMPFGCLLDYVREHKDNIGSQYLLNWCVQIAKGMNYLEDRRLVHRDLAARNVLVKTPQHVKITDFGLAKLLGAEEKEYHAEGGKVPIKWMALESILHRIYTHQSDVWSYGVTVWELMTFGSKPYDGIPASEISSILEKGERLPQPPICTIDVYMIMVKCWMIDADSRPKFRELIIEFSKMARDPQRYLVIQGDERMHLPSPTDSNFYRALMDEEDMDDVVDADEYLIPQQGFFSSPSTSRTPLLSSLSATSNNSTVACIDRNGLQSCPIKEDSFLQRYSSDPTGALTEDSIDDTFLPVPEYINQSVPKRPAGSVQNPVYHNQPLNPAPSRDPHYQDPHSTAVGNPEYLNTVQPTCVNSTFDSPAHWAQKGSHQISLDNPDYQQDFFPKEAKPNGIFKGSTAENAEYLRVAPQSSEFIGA

Sequence of EGFR^DM (T790M/L858R) (P00533 25-1210 T790M/L858R): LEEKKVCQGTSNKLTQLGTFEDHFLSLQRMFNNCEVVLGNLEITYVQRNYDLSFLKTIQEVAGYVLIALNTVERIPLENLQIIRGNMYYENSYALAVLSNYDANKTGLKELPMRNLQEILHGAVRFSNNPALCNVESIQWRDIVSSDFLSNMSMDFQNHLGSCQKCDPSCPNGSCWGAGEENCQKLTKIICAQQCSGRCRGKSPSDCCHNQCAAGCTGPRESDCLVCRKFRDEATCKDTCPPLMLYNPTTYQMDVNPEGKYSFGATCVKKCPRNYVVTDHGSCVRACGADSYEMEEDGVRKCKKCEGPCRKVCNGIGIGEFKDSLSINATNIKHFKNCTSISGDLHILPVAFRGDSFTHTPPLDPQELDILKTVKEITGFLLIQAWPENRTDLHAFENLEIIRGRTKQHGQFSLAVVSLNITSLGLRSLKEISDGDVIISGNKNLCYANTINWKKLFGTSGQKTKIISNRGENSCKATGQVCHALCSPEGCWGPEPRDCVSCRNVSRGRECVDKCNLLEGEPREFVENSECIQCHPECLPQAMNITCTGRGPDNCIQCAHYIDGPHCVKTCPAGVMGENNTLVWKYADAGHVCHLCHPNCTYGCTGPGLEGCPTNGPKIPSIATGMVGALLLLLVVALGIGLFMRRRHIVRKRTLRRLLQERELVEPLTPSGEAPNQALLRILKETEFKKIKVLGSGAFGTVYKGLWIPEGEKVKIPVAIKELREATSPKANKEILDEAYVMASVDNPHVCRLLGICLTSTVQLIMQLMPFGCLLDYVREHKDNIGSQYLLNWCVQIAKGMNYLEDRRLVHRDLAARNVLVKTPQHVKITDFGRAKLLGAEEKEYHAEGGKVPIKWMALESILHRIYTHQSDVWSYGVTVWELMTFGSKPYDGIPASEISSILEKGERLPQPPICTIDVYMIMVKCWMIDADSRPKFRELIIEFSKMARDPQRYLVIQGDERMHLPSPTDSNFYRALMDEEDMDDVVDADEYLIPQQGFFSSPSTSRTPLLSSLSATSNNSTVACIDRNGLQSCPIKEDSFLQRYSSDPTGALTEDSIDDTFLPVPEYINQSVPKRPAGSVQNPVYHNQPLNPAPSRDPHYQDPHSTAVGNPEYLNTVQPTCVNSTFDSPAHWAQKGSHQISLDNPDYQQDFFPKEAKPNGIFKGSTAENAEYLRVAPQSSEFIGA

| Compound | IC50 (Ba/F3-MER cells) [nM] | other results |
| --- | --- | --- |
| C=CC(=O)Nc1cccc(-c2c(-c3ccccc3)oc3ncnc(Oc4ccc(NC(=O)C5(C(=O)Nc6ccc(F)cc6)CC5)cc4)c23)c1 [Compound 11] | 618 | inhibition at 1 µM (MER; read-out: MER inh. @ 1 μM): 14%; inhibition at 1 µM (AXL; read-out: AXL inh. @ 1 μM): 96%; IC50 (EGFR^DM (T790M/L858R)): 42 nM; inhibition at 1 µM (EGFR^WT): 40% |
| Nc1cccc(-c2coc3ncnc(Oc4ccc(NC(=O)c5cccn(-c6ccc(F)cc6)c5=O)cc4)c23)c1 [Compound 18, N-(4-{[5-(3-Aminophenyl)furo[2,3-d]pyrimidin-4-yl]oxy}phenyl)-1-(4-fluorophenyl)-2-oxo-1,2-dihydropyridine-3-carboxamide] | 910 | – |
| Nc1cccc(-c2c(Br)oc3ncnc(Oc4ccc(NC(=O)c5cccn(-c6ccc(F)cc6)c5=O)cc4)c23)c1 [Compound 19, N-(4-{[5-(3-Aminophenyl)-6-bromofuro[2,3-d]pyrimidin-4-yl]oxy}phenyl)-1-(4-fluorophenyl)-2-oxo-1,2-dihydropyridine-3-carboxamide] | 428 | – |
| Cc1oc2ncnc(Oc3ccc(NC(=O)c4cccn(-c5ccc(F)cc5)c4=O)cc3)c2c1-c1cccc(N)c1 [Compound 20, N-(4-{[5-(3-Aminophenyl)-6-methylfuro[2,3-d]pyrimidin-4-yl]oxy}phenyl)-1-(4-fluorophenyl)-2-oxo-1,2-dihydropyridine-3-carboxamide] | 211 | – |
| Nc1cccc(-c2c(-c3cn[nH]c3)oc3ncnc(Oc4ccc(NC(=O)c5cccn(-c6ccc(F)cc6)c5=O)cc4)c23)c1 [Compound 21, N-(4-{[5-(3-Aminophenyl)-6-(1H-pyrazol-4-yl)furo[2,3-d]pyrimidin-4-yl]oxy}phenyl)-1-(4-fluorophenyl)-2-oxo-1,2-dihydropyridine-3-carboxamide] | 10.6 | – |
| Cc1nn(C)cc1-c1oc2ncnc(Oc3ccc(NC(=O)c4cccn(-c5ccc(F)cc5)c4=O)cc3)c2c1-c1cccc(N)c1 [Compound 23, N-(4-{[5-(3-Aminophenyl)-6-(1,3-dimethyl-1H-pyrazol-4-yl)furo[2,3-d]pyrimidin-4-yl]oxy}phenyl)-1-(4-fluorophenyl)-2-oxo-1,2-dihydropyridine-3-carboxamide] | 5.9 | – |
| Cc1noc(C)c1-c1oc2ncnc(Oc3ccc(NC(=O)c4cccn(-c5ccc(F)cc5)c4=O)cc3)c2c1-c1cccc(N)c1 [Compound 24, N-(4-{[5-(3-Aminophenyl)-6-(3,5-dimethyl-1,2-oxazol-4-yl)furo[2,3-d]pyrimidin-4-yl]oxy}phenyl)-1-(4-fluorophenyl)-2-oxo-1,2-dihydropyridine-3-carboxamide] | 1050 | – |
| Nc1cccc(-c2c(-c3cc[nH]n3)oc3ncnc(Oc4ccc(NC(=O)c5cccn(-c6ccc(F)cc6)c5=O)cc4)c23)c1 [Compound 25, N-(4-{[5-(3-Aminophenyl)-6-(1H-pyrazol-3-yl)furo[2,3-d]pyrimidin-4-yl]oxy}phenyl)-1-(4-fluorophenyl)-2-oxo-1,2-dihydropyridine-3-carboxamide] | 77.1 | – |
| Nc1cccc(-c2c(-c3ccsc3)oc3ncnc(Oc4ccc(NC(=O)c5cccn(-c6ccc(F)cc6)c5=O)cc4)c23)c1 [Compound 26, N-(4-{[5-(3-Aminophenyl)-6-(thiophen-3-yl)furo[2,3-d]pyrimidin-4-yl]oxy}phenyl)-1-(4-fluorophenyl)-2-oxo-1,2-dihydropyridine-3-carboxamide] | 4.5 | – |
| Cn1cc(-c2cc3c(Oc4ccc(NC(=O)c5cccn(-c6ccc(F)cc6)c5=O)cc4)ncnc3o2)cn1 [Compound 27, 1-(4-Fluorophenyl)-N-(4-{[6-(1-methyl-1H-pyrazol-4-yl)furo[2,3-d]pyrimidin-4-yl]oxy}phenyl)-2-oxo-1,2-dihydropyridine-3-carboxamide] | 172 | – |
| CN(C)c1cccc(-c2c(-c3cnn(C)c3)oc3ncnc(Oc4ccc(NC(=O)c5cccn(-c6ccc(F)cc6)c5=O)cc4)c23)c1 [Compound 30, N-[4-({5-[3-(Dimethylamino)phenyl]-6-(1-methyl-1H-pyrazol-4-yl)furo[2,3-d]pyrimidin-4-yl}oxy)phenyl]-1-(4-fluorophenyl)-2-oxo-1,2-dihydropyridine-3-carboxamide] | 13.4 | – |
| CNCc1cccc(-c2c(-c3cnn(C)c3)oc3ncnc(Oc4ccc(NC(=O)c5cccn(-c6ccc(F)cc6)c5=O)cc4)c23)c1 [Compound 32, 1-(4-Fluorophenyl)-N-{4-[(5-{3-[(methylamino)methyl]phenyl}-6-(1-methyl-1H-pyrazol-4-yl)furo[2,3-d]pyrimidin-4-yl)oxy]phenyl}-2-oxo-1,2-dihydropyridine-3-carboxamide] | 5 | – |
| Cn1cc(-c2oc3ncnc(Oc4ccc(NC(=O)c5cccn(-c6ccc(F)cc6)c5=O)cc4)c3c2-c2ccccc2N)cn1 [Compound 36, N-(4-{[5-(2-Aminophenyl)-6-(1-methyl-1H-pyrazol-4-yl)furo[2,3-d]pyrimidin-4-yl]oxy}phenyl)-1-(4-fluorophenyl)-2-oxo-1,2-dihydropyridine-3-carboxamide] | 2.1 | – |
| Cn1cc(-c2oc3ncnc(Oc4ccc(NC(=O)c5cccn(-c6ccc(F)cc6)c5=O)cc4)c3c2-c2ccc(N)cc2)cn1 [Compound 37, N-(4-{[5-(4-Aminophenyl)-6-(1-methyl-1H-pyrazol-4-yl)furo[2,3-d]pyrimidin-4-yl]oxy}phenyl)-1-(4-fluorophenyl)-2-oxo-1,2-dihydropyridine-3-carboxamide] | 1.2 | – |
| CC(=O)Nc1ccc(-c2c(-c3cnn(C)c3)oc3ncnc(Oc4ccc(NC(=O)c5cccn(-c6ccc(F)cc6)c5=O)cc4)c23)cc1 [Compound 38, N-[4-({5-[4-(Acetylamino)phenyl]-6-(1-methyl-1H-pyrazol-4-yl)furo[2,3-d]pyrimidin-4-yl}oxy)phenyl]-1-(4-fluorophenyl)-2-oxo-1,2-dihydropyridine-3-carboxamide] | 0.4 | – |
| Cn1cc(-c2oc3ncnc(Oc4ccc(NC(=O)c5cccn(-c6ccc(F)cc6)c5=O)cc4)c3c2-c2ccc(N3CCNCC3)cc2)cn1 [Compound 40, 1-(4-Fluorophenyl)-N-[4-({6-(1-methyl-1H-pyrazol-4-yl)-5-[4-(piperazin-1-yl)phenyl]furo[2,3-d]pyrimidin-4-yl}oxy)phenyl]-2-oxo-1,2-dihydropyridine-3-carboxamide] | 1.6 | IC50 (MER): 2 nM; IC50 (AXL): 8 nM |
| CN1CCN(c2ccc(-c3c(-c4cnn(C)c4)oc4ncnc(Oc5ccc(NC(=O)c6cccn(-c7ccc(F)cc7)c6=O)cc5)c34)cc2)CC1 [Compound 41, 1-(4-Fluorophenyl)-N-[4-({5-[4-(4-methylpiperazin-1-yl)phenyl]-6-(1-methyl-1H-pyrazol-4-yl)furo[2,3-d]pyrimidin-4-yl}oxy)phenyl]-2-oxo-1,2-dihydropyridine-3-carboxamide] | 0.7 | IC50 (MER): 5.8 nM; IC50 (AXL): 15.8 nM |
